Results on three compounds are retold here after publication PMC13316043, “Structural basis of NSD2 degradation via targeted recruitment of SCF-FBXO22” (Nature Communications, 2026).

Test [1] has as its target T1, *NSD2 PWWP1 ubiquitination by SCF^FBXO22 (Homo sapiens, UniProt O96028+Q8NEZ5).
T1 construct: fluorescently labeled NSD2-PWWP1 (*NSD2-PWWP1); the FIST domain of FBXO22 rather than full-length FBXO22 that is used in the ubiquitination; 6xHis (N, cleaved yes); GST (cleaved yes); made in house; host or cells: SKP1-FBXO22: Trichoplusia ni insect cells; NSD2 PWWP1 and NEDD8: E. coli BL21(DE3)-CodonPlus RIL
Description: Ubiquitination assay using purified components. Conditions: for SCF^FBXO22-dependent ubiquitination of *NSD2 PWWP1: compound at 0.5 µM, fluorescent SDS-PAGE; for hook effect upon titration in ubiquitination assay: compound titration. The class given is biochemical. How it is done:
Ubiquitination assays were performed by mixing 2 separate solutions. First, SKP1-FBXO22, fluorescently labeled NSD2-PWWP1 (*NSD2-PWWP1), and compounds, unless otherwise indicated, were pre-incubated for 15 min on ice. Second, UBA1, UBE2R2, UBE2D2 or UBE2L3 and ARIH1, NEDD8 ~ CUL1-RBX1, MgATP, and reaction buffer (20 mM HEPES pH 8, 200 mM NaCl, 0.5 mg/mL bovine serum albumin (BSA)) were combined on ice to generate a master mix. A standard volume of master mix was added to each reaction tube, and Ub was added to initiate the ubiquitination reaction containing 100µM Ub, 1µM SKP1-FBXO22, 0.5µM *NSD2 PWWP1, 0.5µM compound, 0.1µM UBA1, 1µM UBE2R2, 1µM UBE2D2 or 1µM UBE2L3, and 1µM ARIH1, 1µM NEDD8~CUL1-RBX1, and 5mM MgATP in reaction buffer. Ubiquitination assays comparing *NSD2 PWWP1 mutants were performed similarly, except that SKP1-FBXO22, *NSD2 PWWP1 mutants, and compounds were not incubated separately prior to the start of the reaction. The reactions proceeded at room temperature for 15 min until they were quenched by adding SDS Loading Buffer. The ubiquitinated *NSD2 PWWP1 was visualized by subjecting the reactions to SDS-PAGE and imaging using the Amersham Typhoon.

Another test deals with FBXO22 FIST domain. In words: Differential scanning fluorimetry (DSF). It counts as binding, human. Conditions: vs DMSO. How it is done:
A total of 9.5 µL of the master mix containing FBXO22 FIST WT or variants, SYPRO Orange Dye (Invitrogen), and DSF buffer (20 mM Tris 7.5, 150 mM NaCl, and 1 mM TCEP) were added to a 384-well qPCR plate (Genesee Scientific). 0.5 µL of the compound in DMSO was added to achieve a final concentration of 15 µM of the protein and 15× SYPRO Orange. The DSF assay plate was covered and incubated on an orbital shaker at room temperature for 30 min. The DSF assay was performed using the ViiA 7 Real-Time PCR System (Applied Biosystems). The plate was heated from 25°C to 95°C with a rate of 0.033°C/second. The raw fluorescence value was analyzed using the Protein Thermal Shift Software (Applied Biosystems, v1.4) to obtain the Tm. The graph was generated using GraphPad Prism (v 10.4.1).
In general terms: DSF heats the sample and reads unfolding from a dye or from intrinsic fluorescence.

In the next test the test system is BACH1. In words: Western blot of BACH1 in HEK293T cells. Particulars: for BACH1 levels by immunoblot: 10 µM, 6 hrs. It counts as cell-based, human. How it is done: HEK293T and U2OS were obtained from ATCC and cultured in high-glucose-containing Dulbecco’s Modified Eagle’s Medium (DMEM; Gibco; cat. #11995) supplemented with 10% fetal bovine serum (VWR) and 1% penicillin/streptomycin (Gibco). Cells were treated with either UNC10415667, UNC12149, UNC12567, hemin (Sigma; cat. #H9039), or DMSO control for the indicated times and analyzed by western blot using standard procedures. Briefly, cells were lysed on ice for 15 min in NETN lysis buffer (20 mM Tris pH 8.0, 100 mM NaCl, 0.5 mM EDTA, 0.5% NP40) supplemented with 10 µg/mL aprotinin, 10 µg/mL leupeptin, 10 µg/mL pepstatin A, 1 mM sodium orthovanadate, 1 mM sodium fluoride, and 1 mM AEBSF (4-[two aminoethyl] benzenesulfonyl fluoride). Cell lysates were centrifuged at 20,000×g in a benchtop microcentrifuge at 4 °C for 10 min. Protein concentration was determined by Bradford assay (Bio-Rad; cat. #5000006). Protein concentration was normalized using Laemmli buffer. Samples were heated for 5 min at 95°C in a dry water-bath. Samples were separated on TGX stain free gels (Bio-Rad) transferred to nitrocellulose membrane and blocked in 5% non-fat dry milk (Biorad; cat. #1706404) diluted in 1x TBS-T (137 mM NaCl, 2.7 mM KCl, 25 mM Tris pH 7.6, 1% Tween-20). Primary antibody incubations (Anti-NSD2 (Abcam; Cat# ab75359; Lot# 1093214-1; 1:1000 dilution), Anti-BACH1 (Fortis Life Sciences; Cat# A303-805A; Lot# 1; 1:1000 dilution), and Anti-GAPDH (Santa Cruz Biotechnology; Cat# sc-47724; Lot# C1023; 1:1000 dilution)) were performed overnight at 4 °C. Secondary antibodies (Peroxidase AffiniPure Goat Anti-Rabbit IgG (H + L) (Jackson Immuno; Cat# 111-035-003; 1:5000 dilution) and Peroxidase AffiniPure Goat Anti-Mouse IgG (H + L) (Jackson Immuno; Cat# 115-035-003; 1:5000 dilution)) were incubated for 1 h at room temperature. Blots were developed by chemiluminescence using Pierce ECL (Thermo Fisher Scientific; cat. #32106).
(In western blotting, separated proteins are transferred to a membrane and probed.)

SMILES strings stand for the structures.

T1 sequence (O96028 222-286 limits assumed): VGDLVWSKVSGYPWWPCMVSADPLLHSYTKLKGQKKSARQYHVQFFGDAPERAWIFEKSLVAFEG
T1 sequence (Q8NEZ5 whole entry, the tested form may be a part): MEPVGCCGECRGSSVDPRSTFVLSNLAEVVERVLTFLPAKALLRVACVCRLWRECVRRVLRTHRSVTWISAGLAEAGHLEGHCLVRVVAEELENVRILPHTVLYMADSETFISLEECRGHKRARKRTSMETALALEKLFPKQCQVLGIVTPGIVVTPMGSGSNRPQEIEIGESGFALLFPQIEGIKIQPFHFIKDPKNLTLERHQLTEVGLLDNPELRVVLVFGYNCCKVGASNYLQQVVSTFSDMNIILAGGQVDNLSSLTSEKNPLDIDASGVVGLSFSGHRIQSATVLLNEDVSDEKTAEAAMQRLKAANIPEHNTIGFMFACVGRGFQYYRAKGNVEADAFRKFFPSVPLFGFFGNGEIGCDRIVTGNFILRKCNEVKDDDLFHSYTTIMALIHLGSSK

With `O=C1COc2cc(C(=O)N(Cc3ccc(C(=O)Nc4ccc5c(c4)CCN(C(=O)CCCCC(O)S(=O)(=O)O)C5)cc3)C3CC3)ccc2N1` (centres unmarked) [UNC10088], in test [1], the “SCF^FBXO22-dependent ubiquitination of *NSD2 PWWP1” value (“SCF^FBXO22-dependent ubiquitination” below) is on record as “promotes ubiquitination” and the “hook effect upon titration in ubiquitination assay” value is “observed hook effect”. The “change in melting temperature (Tm) of WT FBXO22 FIST” value in the test on FBXO22 FIST domain is “stabilize WT FBXO22 FIST”. The “BACH1 levels by immunoblot” value in the test on BACH1 is given as “remained constant”.
As for `O=Cc1ccc(C(=O)N2CCc3cc(NC(=O)c4ccc(CN(C(=O)c5ccc6c(c5)OCC(=O)N6)C5CC5)cc4)ccc3C2)cc1` [UNC10415667], in test [1], the “SCF^FBXO22-dependent ubiquitination” value is given as “to the same extent as UNC10088” and the “hook effect upon titration in ubiquitination assay” value is listed as “characteristic hook effect”. Moreover, the “change in melting temperature (Tm) of FBXO22 FIST C326A” value in the test on FBXO22 FIST domain (C326A variant) is reported as “negligible shift”. The “change in melting temperature (Tm) of WT FBXO22 FIST” value with FBXO22 FIST domain was “significant increase”. The “BACH1 and NSD2 levels upon co-treatment with Hemin” value in the test with BACH1 (10 µM UNC10415667 and 20 µM Hemin, 6 h) was “both BACH1 and NSD2 were degraded”. In addition, the “BACH1 levels by immunoblot” value with BACH1 is “unchanged”.
With `Cc1cc(C=O)ccc1C(=O)N1CCc2cc(NC(=O)c3ccc(CN(C(=O)c4ccc5c(c4)OCC(=O)N5)C4CC4)cc3)ccc2C1` [UNC12149], the “SCF^FBXO22-dependent ubiquitination” value in test [1] is given as “significant in vitro NSD2 ubiquitination”.
